Experiments:
[1] = Acute toxicity (LD 50) in the mouse; assay type: in vivo; details: mouse, in vivo, ip, intraperitoneal, mice
[2] = Solubility and hygroscopicity; assay type: physicochemical
[3] = Acute toxicity (LD 50) in the mouse; assay type: in vivo; details: mouse, in vivo, po
From the text: (§1) The oral LD-50 is 16.50 g/kg for DL and 18.25 g/kg for L(+).

mice [4] = assay: Acute toxicity (LD 50) in the mouse; assay type: in vivo; details: for LD50: intraperitoneal, mice; for LD-50: oral, mouse
[5] = Pharmacological study, overall comparison; assay type: in vivo; details: for pharmacological properties: in vivo
depression = assay: Clinical tests in depression; assay type: in vivo; details: human
From the text: (§2) The importance of the compounds according to the invention was confirmed by clinical tests.

[6] = test system: amphetamine hyperactivity; assay: Potentiation of amphetamine hyperactivity (actography); assay type: in vivo, mouse
From the text: (f) Potentiation of amphetamine hyperactivity.

[7] = test system: hyperactivity due to the association of amphetamine and chlorodiazepoxide; assay: Inhibition of hyperactivity due to the association of amphetamine and chlorodiazepoxide (actography); assay type: in vivo, mouse; details: 500 and 1000 mg/kg i.p., 1 hour and 3 hours before (+) amphetamine sulphate (5 mg/kg) and chlorodiazepoxide (25 or 50 mg/kg)
Experimental: (b) Inhibition of hyperactivity due to the association of amphetamine and chlorodiazepoxide;
Simultaneous intraperitoneal administration of (+) amphetamine sulphate (5 mg/kg) and chlorodiazepoxide (25 or 50 mg/kg) to mice produced hyperactivity which was measured by the actography method, wherein the mice are placed in pairs in three suspended cages and their movements are recorded.

rat = assay: Hypothermic effect on the rat (rectal temperature); assay type: in vivo; details: 1 g/kg intraperitoneal
From the text: (a) A hypothermic effect on the rat.

[8] = test system: analgesia produced by morphine; assay: Heating plate test (analgesia produced by morphine); assay type: in vivo
[9] = test system: manic-depressive psychoses; assay: Clinical tests in manic-depressive psychoses; assay type: in vivo, human
Experimental: as §2
Lithium N-acetyl tryptophanate was used to treat manic-depressive psychoses.
A person was treated for a manic-depressive psychosis for 6 years. Relapses normally occurred in spring. They were not prevented either by tricyclic drugs or by IMAO substances. Treatment with lithium carbonate produced oligo-menorrhoea, although the patient normally had regular periods.

exploratory activity = assay: Exploratory activity in the perforated board test; assay type: in vivo, mouse; details: mice
From the text: (c) The reduction of exploratory activity in the `perforated board` test (Boissiet and Simon-Arch-Int. Pharmacodyn. 1964, 147, 3-4).

mice [10] = assay: Acute toxicity (LD 50) in the mouse; assay type: in vivo
From the text: as §1

reserpine ptosis = assay: Reserpine anti-ptosis effect; assay type: in vivo, mouse
Experimental: (d) A reserpine anti-ptosis effect. Increasing doses of the test product were subcutaneously administered to male mice, 30 minutes before intraperitoneal injection of reserpine. The ptosis was measured every half-hour for 5 hours by the method of Rubin et Coll. (observation of the occlusion of the lids of each eye). The percentage protection against ptosis was calculated, compared with controls. Lithium acetyl tryptothanate reduced ptosis produced by reserpine, to an extent which increased up to a dose of 800 mg/kg (45% reduction).

gastric ulcers [11] = assay: Anti-ulcer effect, stress-ulcer method of Rossi et Coll.; assay type: in vivo, mouse; details: for DE-50 as fraction of the LD-50 / ED50: stress-ulcer method; for ED50: mouse, read-out: DE-50 (anti-ulcer dose 50)
Experimental: (§3) Mg acetyl tryptophanate dissolved in twice-distilled water was administered 48 hours before, 24 hours before and at the moment when the mouse was put under constraint, or 24 hours before and 1 hour before the ligature of the pylorus.
(§4) The DE-50 (anti-ulcer dose 50) of orally-administered Mg acetyl tryptophanate, measured by the stress-ulcer method, was 1700 mg/kg. The DE-50 of intraperitoneally administered Mg acetyl tryptophanate was 230 mg/kg, measured by the stress-ulcer method (i.e. one-tenth of the LD-50) compared with 16 mg/kg (33/100 of the LD-50) for prifinium bromide; measured by the Shay method, the DE-50 was 340 mg/kg (14/100 of the LD-50) for Mg acetyl tryptophanate, compared with 25 mg/kg (52/100 of the LD-50) for prifinium bromide under the same conditions.

[12] = Acute toxicity (LD-50) in the rat; details: in vivo
From the text: as §1

[13] = test system: pentobarbitone sleeping time; assay: Pentobarbitone sleeping time; assay type: in vivo; details: mouse, 35 mg/kg pentobarbitone 5 minutes before sub-cutaneous product
gastric ulcers [14] = assay: Anti-ulcer effect, Shay method (ligature of the pylorus); assay type: in vivo, mouse; details: for ED50: mouse, read-out: DE-50 (anti-ulcer dose 50)
Experimental: as §3, §4

With `CC(=O)NC(Cc1c[nH]c2ccccc12)C(=O)O` (racemic) [Lithium N-acetyl tryptophanate (DL), Li N-acetyl tryptophan (DL)] the LD50 [1] was 3400 mg/kg, the solubility in water [2] was “very soluble” and the LD50 [3] was 8700 mg/kg.
In the case of `CC(=O)NC(Cc1c[nH]c2ccccc12)C(=O)O` (racemic) [Magnesium N-acetyl tryptophanate (DL), magnesium N-acetyl tryptophanate (DL)], the “LD50” value (mice [4]) is reported as 2800 mg/kg, the hygroscopicity [2] is reported as “very hygroscopic” and the LD50 [3] is reported as 16500 mg/kg.
With `CC(=O)NC(Cc1c[nH]c2ccccc12)C(=O)O` (racemic) [Monoethanolamine N-acetyl tryptophanate, monoethanolamine N-acetyl tryptophanate (DL)] the pharmacological properties [5] was “very similar to those of magnesium N-acetyl tryptophanate”, the “effect on sleep, sthenic action and headaches” value (from here on “effect on sleep”) (depression) was “producing normal sleep, accompanied by a daily sthenic action and the control of refractory headaches” and the “use in the treatment of depression” value (depression) was “of use in the treatment of depression”. For the same compound, the LD-50 (mice [4]) was “above 18 g/kg”, the “solubility in chlorine and hydrocarbon derivatives” value ([2]; chlorine and hydrocarbon derivatives) was “insoluble” and the solubility in water [2] was “fairly soluble”.
For `CC(=O)NC(Cc1c[nH]c2ccccc12)C(=O)O` (racemic) [Morpholine N-acetyl tryptophanate, morpholine N-acetyl tryptophanate], the pharmacological properties [5] was “very similar to those of magnesium N-acetyl tryptophanate”, the “effect on sleep” value (depression) was “producing normal sleep, accompanied by a daily sthenic action and the control of refractory headaches” and the “use in the treatment of depression” value (depression) was “of use in the treatment of depression”. The LD-50 (mice [4]) was 16000 mg/kg, the “solubility in chlorinated solvents” value ([2]; chlorinated solvents) was “slightly soluble” and the solubility in water [2] was “very soluble”.
For `C[C@H](N)Cc1ccccc1` [Dexamphetamine sulphate, dexamphetamine sulphate, reference compound], the “excitation, dexamphetamine sulphate alone” value ([6]; 5 mg/kg intraperitoneal, mouse) was “did not produce very marked excitation”.
In the case of `CC(=O)N[C@@H](Cc1c[nH]c2ccccc12)C(=O)O` [Lithium N-acetyl tryptophanate L(+), Lithium N-acetyl tryptophanate in the L(+) form], the LD50 [1] is reported as 3250 mg/kg, the “solubility in chlorinated and aromatic solvents” value ([2]; chlorinated and aromatic solvents) is reported as “very slightly soluble” and the “solubility in ethyl alcohol” value ([2]; ethyl alcohol) is reported as “soluble”. For the same compound, the solubility in water [2] was “soluble” and the LD50 [3] was 10500 mg/kg.
In the case of `CC(=O)NC(Cc1c[nH]c2ccccc12)C(=O)O` (stereo not drawn) [Lithium N-acetyl tryptophanate, lithium N-acetyl tryptophanate], the reduction in hyperactivity [7] is reported as “very marked reduction in hyperactivity”, the “excitation with 5 mg/kg dexamphetamine sulphate plus product (actography)” value ([6]; 500 mg/kg with 5 mg/kg i.p. dexamphetamine sulphate, mice) is reported as “to a considerably greater extent than with dexamphetamine sulphate alone” and the “duration of progressive reduction of rectal temperature after injection” value (rat) is reported as 110 min. For the same compound, the “temperature of the rectum” value (rat) was “progressively reduces the temperature of the rectum”, the “effect on analgesia produced by morphine” value [8] was “did not affect analgesia produced by morphine” and the tolerance by patients ([9]; human, in vivo) was “tolerated by the patients better than lithium carbonate”. For the same compound, the prevention of relapses ([9]; manic-depressive psychoses) was “appeared to prevent relapses into cyclothymia”, the mobility (exploratory activity; 1000 mg/kg intraperitoneal) was “very marked increase in mobility” and the exploratory activity (exploratory activity; 1500 mg/kg intraperitoneal) was “significant reduction in exploratory activity”. For the same compound, the toxicity in words (mice [10]; mouse, in vivo) was “only slightly toxic”, the “oral toxicity in words” value (mice [10]; oral) was “low” and the “reduction of ptosis produced by reserpine” value (reserpine ptosis; 800 mg/kg subcutaneous, 30 minutes before i.p. reserpine, male mice) was 45%.
For `O=C(O)O` [Lithium carbonate, lithium carbonate], the lithaemia ([9]; observation No. 1) was no more than 1 meq, the “side effect on menstruation” value ([9]; observation No. 1) was “oligo-menorrhoea” and the “side effects during treatment” value ([9]; observation No. 1) was “nausea and attacks of vomiting”.
For `CC(=O)N[C@@H](Cc1c[nH]c2ccccc12)C(=O)O` [Magnesium N-acetyl tryptophanate L(+), L(+) magnesium N-acetyl tryptophanate], the “LD50” value (mice [4]) was 2300 mg/kg, the solubility in water [2] was “very soluble” and the LD50 [3] was 18200 mg/kg.
With `CC(=O)NC(Cc1c[nH]c2ccccc12)C(=O)O` (stereo not drawn) [Magnesium N-acetyl tryptophanate, magnesium N-acetyl tryptophanate] the “anti-ulcer effect compared with prifinium bromide” value (gastric ulcers [11]; both ulcer methods) was “slightly lower anti-ulcer effect than prifinium bromide”, the “safety in therapy compared with prifinium bromide” value (gastric ulcers [11]; both ulcer methods) was “safer in therapy” and the “DE-50 as fraction of the LD-50” value (gastric ulcers [11]; intraperitoneal) was “one-tenth”. The ED50 (gastric ulcers [11]; ip, intraperitoneal) was 230 mg/kg, the ED50 (gastric ulcers [11]; oral) was 1700 mg/kg and the “action compared with lithium acetyl tryptophanate” value ([5]; measured by the same tests) was “slower but more prolonged”. The LD50 ([12]; ip, intraperitoneal) was 1350 mg/kg, the LD50 ([12]; oral) was greater than 8000 mg/kg and the “effect on sleep” value (depression) was “producing normal sleep, accompanied by a daily sthenic action and the control of refractory headaches”. For the same compound, the “use in the treatment of depression” value (depression) was “of use in the treatment of depression”, the average sleeping time [13] was “increased the average sleeping time to an extent proportional to the dose” and the “DE-50 as fraction of the LD-50” value (gastric ulcers [14]) was 14/100. For the same compound, the ED50 (gastric ulcers [14]) was 340 mg/kg and the “reserpine anti-ptosis effect in words” value (reserpine ptosis; mouse, in vivo) was “only a very slight reserpine anti-ptosis effect”.
With `CC[N+]1(CC)CCC(=C(c2ccccc2)c2ccccc2)C1C` (stereo not drawn) [Prifinium bromide, prifinium bromide, reference compound] the “DE-50 as fraction of the LD-50” value (gastric ulcers [11]; intraperitoneal) was 33/100, the ED50 (gastric ulcers [11]; ip, intraperitoneal) was 16 mg/kg and the “DE-50 as fraction of the LD-50” value (gastric ulcers [14]) was 52/100. The ED50 (gastric ulcers [14]) was 25 mg/kg.

Reference: patent US4299838A, “Tryptophan derivatives having an increased effect on the central nervous system” (priority 1974, dated 1981)
